Patent US6589520B1, “Treatment of psoriasis, allergies and auto-immune disorders of the skin with cis-6-hexadecenoic acid” (Beiersdorf AG, priority 1997, dated 2003)
Counter-ions that a name gives are not always drawn.

Tests used:
solubility in water = assay type: physicochemical
Protocol: If salts are sparingly soluble in water, they can be administered in the form of suspensions. […] For example, salts are preferably injected intravenously or intramuscularly in the form of an aqueous solution, such as physiological saline solution. The ampoules contain, for example, 2.5 mg of the fatty acid salt per 5 ml of solution. Ampoules containing, for example, 45 mg of fatty acid salt per milliliter of solution can also be prepared.

macrophage = macrophage differentiation test; assay type: cell-based
From the text: This is of importance in the prophylaxis of processes such as, for example, psoriasis or atopy or allergies or auto-immune disorders.

SMILES | solubility in water (solubility in water) | anti-inflammatory macrophage-stimulating potency (macrophage)
CCCCCCC/C=C\CCCCCCCC(=O)O [sodium salt of cis-9-heptadecenoic acid, cis-9-heptadecenoic acid] | particularly good solubility in water | 
CCCCCCCCC/C=C\CCCCC(=O)O [cis-6-hexadecenoic acid] |  | showed an anti-inflammatory macrophage-stimulating potency
